Laboratory results as given in US9862678B2, “3,4-diaminobenzenesulfonamide derivatives for inhibiting cell death” (VIB VZW, priority 2014, dated 2018).

How the values were obtained:
[1] = tested on: IMR-32 neuroblastoma cell line; experiment: Inhibition of erastin-induced ferroptosis in IMR-32 cells (Sytox Green cell death readout); format: cell-based; details: Homo sapiens; inhibiting ferroptosis in the IMR-32 neuroblastoma cell line stimulated with 10 μM erastin; compounds 1 nM to 1 μM, triplicate
Method: In the present disclosure, the potency of a compound inhibiting (or reducing) ferroptosis and/or oxytosis are determined in in vitro or in vivo assays. Typically in vitro assays are used to measure the potency of a candidate compound. Examples of suitable in vitro assays are cellular assays. One non-limiting example of an assay involves the use of the IMR-32 neuroblastoma cell line. The latter is stimulated to enter into ferroptosis upon stimulation with 10 μM erastin, a documented ferroptosis inducer (see, for example, Dixon et al. (2012) Cell 149, 1060-1072, and ferroptosis inhibitors are evaluated for the prevention of erastin-induced ferroptosis. Yet another assay is based the glutamate-induced cell death in the hippocampal cell line HT22 and ferroptosis/oxytosis inhibitors are evaluated for the prevention of cell death (see N. Henke et al. (2013) Cell Death and Disease 4, e470). Still another assay is based on the sorafinib-induced cell death (described to be iron dependent cell death) in hepatocellular carcinoma cells and ferroptosis inhibitors are evaluated for the prevention of cell death (see C. Louandre et al. (2013) Int. J. Cancer 133, 1732). The calculated potency of a compound inhibiting ferroptosis and/or oxytosis is typically depicted as an IC50 value. Examples of suitable in vivo assays are typically pre-clinical disease models of, for example, mice for the diseases benefiting the application of ferroptosis and/or oxytosis inhibitors, as described herein. One non-limiting example of an in vivo assay is based on inducing liver damage in mice by administering the herbicide diquat dibromide monohydrate and ferroptosis inhibitors are evaluated based on reduced levels of liver transaminases in serum (see Q. Ran et al. (2004) J. Biol. Chem. 279, 53, 55137).
The IC50 values for the individual compounds of the disclosure were determined in the neuroblastoma, IMR-32 cell line. In brief, IMR-32 cells were subjected to 10 μM erastin, the latter compound is known to induce ferroptosis. A concentration gradient (ranging from 1 nM to 1 μM) of the compounds was applied to the cells. These experiments were performed in a 96-well format (in triplicate), and cell death was analyzed in a fluorescent plate reader by use of a fluorescent cell death dye (1.5 μM Sytox Green). The IC50 values depicted in Table 1 are the concentration values for the individual compounds which are able to overcome ferroptosis.

[2] = Kinetic solubility (turbidity); format: physicochemical; details: kinetic solubility by turbidity, test range 3.125 μM to 200 μM, 10 mM PBS pH 7.4
Method: (§1) Unless otherwise stated, laboratory reagent grade solvents were used. Reagents were obtained from Sigma-Aldrich, Acros Organics or Fluorochem and were used without further purification. Characterization of all compounds was done with ^1H and ^13C NMR and mass spectrometry. ^1H and ^13C NMR spectra were recorded on a 400 MHz Bruker Avance III Nanobay spectrometer with Ultrashield and analyzed by use of MestReNova analytical chemistry software. Chemical shifts are in ppm, and coupling constants are in hertz (Hz). ES mass spectra were obtained from an Esquire 3000 plus ion trap mass spectrometer from Bruker Daltonics. Purities were determined with two diverse HPLC systems based either on mass determination or on UV detection. A Waters acquity UPLC system coupled to a Waters TQD ESI mass spectrometer or a Waters SQD ESI mass spectrometer was used both in combination with a Waters TUV detector. Water (A) and CH3CN (B) were used as eluents. LC-MS spectra were recorded on an Agilent 1100 series HPLC system using a Alltech Prevail C18 column (2.1 mm×50 mm, 3 μm) coupled with an Esquire 3000 plus as MS detector, and a “method A” 5-100% B, 20 min gradient was used with a flow rate of 0.2 mL/min. Formic acid, 0.1%, was added to solvents A and B. Waters Acquity UPLC BEH C18 1.7 μm, 2.1 mm×50 mm column was used. Solvent A consisted of water with 0.1% formic acid. Solvent B consisted of acetonitrile with 0.1% formic acid. Method I involved the following: 0.15 min 95% A, 5% B, then in 1.85 min from 95% A, 5% B to 95% B, 5% A, then 0.25 min (0.350 mL/min), 95% B, 5% A. The wavelength for UV detection was 254 nm. Method II involved the following: flow 0.4 mL/min, 0.25 min 95% A, 5% B, then in 4.75 min to 95% B, 5% A, then 0.25 min 95% B, 5% A, followed by 0.75 min 95% A, 5% B. The wavelength for UV detection was 214 nm. Where necessary, flash purification was performed on a Biotage ISOLERA One flash system equipped with an internal variable dual wavelength diode array detector (200-400 nm). For normal phase purifications SNAP cartridges (10-340 g, flow rate of 10-100 mL/min) were used, and reversed phase purifications were done making use of KP-C18 containing cartridges. Dry sample loading was done by self-packing samplet cartridges using silica and Celite 545, respectively, for normal and reversed phase purifications. Gradients used varied for each purification. Mouse and rat plasma came from Innovative Research. The turbidity in the kinetic solubility experiments was measured using the UV/vis spectrophotometer Synergy MX, Biotek with Gen5.

[3] = Microsomal stability, human microsomes
Method: (§2) In a next step a subset of compounds was subjected to ADME analysis. Thereto the metabolism by murine and human microsomes of representative compounds of the disclosure was measured. The compound ferrostatin-1 (Fer-1, described in S. J. Dixon et al. (2012) Cell 149, 1060-1072), originally described to inhibit ferroptosis, was used a control. In addition, the plasma stability in murine and human plasma was measured. The percentage of remaining compounds was measured by LC-MS.

[4] = Microsomal stability, murine microsomes
Method: as §2

[5] = Plasma stability, human plasma; format: in vitro ADME; details: for recovery at 6 h: human
Method: Thereto the metabolism by murine and human microsomes of representative compounds of the disclosure was measured. […] In addition, the plasma stability in murine and human plasma was measured. The percentage of remaining compounds was measured by LC-MS.

[6] = Plasma stability, murine plasma; format: in vitro ADME, mouse; details: for recovery at 6 h: mouse
Method: as §1

[7] = aqueous buffer, kinetic from dmso stock
[8] = human microsomes (CYP450 and other NADPH-dependent enzymes)
[9] = mouse microsomes (CYP450 and other NADPH-dependent enzymes)

SMILES | IC50 [1] | solubility [2, 7] | Microsomal stability Half-life (t1/2) (min) Human ([3]; human, microsomes) | Microsomal stability Half-life (t1/2) (min) Mouse ([4]; mouse, microsomes) | recovery at 6 h [5] | recovery at 6 h [6] | Microsomal stability Half-life (t1/2) (min) Human [3, 8] | Microsomal stability Half-life (t1/2) (min) Mouse [4, 9] | solubility [2] | Plasma stability % recovery after 6 h Human ([5]; human plasma, 6 h, percentage of remaining parent compound, LC-MS) | Plasma stability % recovery after 6 h Mouse ([6]; mouse plasma, 6 h, percentage of remaining parent compound, LC-MS)
CCNS(=O)(=O)c1ccc(NC2CCCCC2)c(N)c1 [Compound 22, 3-amino-4-(cyclohexylamino)-N-ethylbenzenesulfonamide] | 0.067 µM | 12.5 to 25 µM | 37 ± 3 min | 31 ± 5 min | 81.9% | 86.2% |  |  |  |  | 
CCNS(=O)(=O)c1ccc(NC2CCCCC2)c(NCc2ccccc2)c1 [Compound 37, 3-(benzylamino)-4-(cyclohexylamino)-N-ethylbenzenesulfonamide] | 0.004 µM | 12.5 to 25 µM | 88 ± 16 min | 187 ± 41 min | 100% | 98.6% |  |  |  |  | 
CCNS(=O)(=O)c1ccc(NC2CCCCC2)c(NCc2cncnc2)c1 [Compound 39, 4-(cyclohexylamino)-N-ethyl-3-((pyrimidin-5-ylmethyl)amino)benzenesulfonamide] | 0.187 µM | 100 to 200 µM |  |  |  |  |  |  |  |  | 
CCNS(=O)(=O)c1ccc(NC2C3CC4CC(C3)CC2C4)c(NCc2ccccc2)c1 (stereo not shown) [Compound 44, 4-(adamantan-2-ylamino)-3-(benzylamino)-N-ethylbenzenesulfonamide] | 0.0035 µM | 12.5 to 25 µM | 36 ± 11 min | 31 ± 6 min | 100% | 99.4% |  |  |  |  | 
CCNS(=O)(=O)c1ccc(NC2C3CC4CC(C3)CC2C4)c(NCc2ccncc2)c1 (stereo not shown) [Compound 45, 4-(adamantan-2-ylamino)-N-ethyl-3-((pyridin-4-ylmethyl)amino)benzenesulfonamide] | 0.0039 µM | 12.5 to 25 µM |  |  | 100% | 100% | 64 ± 10 min | 26 ± 5 min |  |  | 
CN1CCN(S(=O)(=O)c2ccc(NC3CCCCC3)c(NCc3ccccc3)c2)CC1 [Compound 56, N2-benzyl-N1-cyclohexyl-4-((4-methylpiperazin-1-yl)sulfonyl)benzene-1,2-diamine] | 0.033 µM | 25 to 50 µM |  |  |  |  |  |  |  |  | 
O=S(=O)(c1ccc(NC2CCCCC2)c(NCc2ccccc2)c1)N1CCOCC1 [Compound 57, N2-benzyl-N1-cyclohexyl-4-(morpholinosulfonyl)benzene-1,2-diamine] | 0.03 µM | 25 to 50 µM |  |  |  |  |  |  |  |  | 
O=S(=O)(NCCO)c1ccc(NC2CCCCC2)c(NCc2ccccc2)c1 [Compound 58, 3-(benzylamino)-4-(cyclohexylamino)-N-(2-hydroxyethyl)benzenesulfonamide] | 0.014 µM | 100 to 200 µM |  |  |  |  |  |  |  |  | 
CCOC(=O)c1ccc(NC2CCCCC2)c(N)c1 [Fer-1, ferrostatin-1, reference compound] |  |  |  |  |  |  | 6.9 ± 0.2 min | 1.9 ± 0.6 min | >200 µM | 100% | 0%
